{
  "source": "ChEMBL document CHEMBL3886143",
  "about": "“(Hetero)aryl cyclopropylamine compounds as LSD1 inhibitors” (2016)",
  "target": "T1, Amine oxidase [flavin-containing] A (Homo sapiens, UniProt P21397)",
  "T1 sequence (P21397 whole entry)": "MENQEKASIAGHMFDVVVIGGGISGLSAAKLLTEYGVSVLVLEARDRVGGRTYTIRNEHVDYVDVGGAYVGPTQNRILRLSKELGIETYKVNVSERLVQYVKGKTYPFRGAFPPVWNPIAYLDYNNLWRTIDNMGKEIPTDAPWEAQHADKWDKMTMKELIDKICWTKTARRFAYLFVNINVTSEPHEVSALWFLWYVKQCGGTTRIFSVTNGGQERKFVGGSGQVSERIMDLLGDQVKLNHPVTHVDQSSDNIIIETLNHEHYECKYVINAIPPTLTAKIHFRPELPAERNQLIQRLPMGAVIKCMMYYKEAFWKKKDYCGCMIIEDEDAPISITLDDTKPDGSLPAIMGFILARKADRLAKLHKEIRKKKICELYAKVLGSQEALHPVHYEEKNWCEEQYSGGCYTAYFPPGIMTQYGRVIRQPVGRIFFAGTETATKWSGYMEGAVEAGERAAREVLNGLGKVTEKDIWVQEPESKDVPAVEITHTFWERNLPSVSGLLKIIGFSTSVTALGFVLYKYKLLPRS",
  "assay": "Fluorescence-Based (Inhibitor)-Screening Assay: In order to monitor MAO enzymatic activities and/or their inhibition rate by inhibitor(s) of interest, a fluorescence-based (inhibitor)-screening assay was set up. 3-(2-Aminophenyl)-3-oxopropanamine (kynuramine dihydrobromide, Sigma Aldrich), a non fluorescent compound was chosen as a substrate. Kynuramine is a non-specific substrate for both MAO-A and MAO-B activities. While undergoing oxidative deamination by MAO activities, kynuramine is converted into 4-hydroxyquinoline (4-HQ), a resulting fluorescent product.The monoamine oxidase activity was estimated by measuring the conversion of kynuramine into 4-hydroxyquinoline. Assays were conducted in 96-well black plates with clear bottom (Corning) in a final volume of 100 uL. The assay buffer was 100 mM HEPES, pH 7.5. […] Clorgyline and Deprenyl (Sigma Aldrich) was used as a control for specific inhibition of MAO-A and MAO-B respectively. After leaving the enzyme(s) interacting with the inhibitor, KM of kynuramine was added to each reaction for MAO-B and MAO-A assay respectively, and the reaction was left for 1 hour at 37° C. in the dark. The oxidative deamination of the substrate was stopped by adding 50 uL of NaOH 2N. […] The IC50 values of each inhibitor were calculated with GraphPad Prism Software.",
  "data": [
    {"smiles": "N[C@H]1CC[C@H](N[C@@H]2C[C@H]2c2ccccc2)CC1", "values": [
      {"measurement": "Ki", "value": "> 40", "unit": "µM"}
    ]}
  ]
}
